Data as given in patent US11725006B2, “Hydrophilic berberine-type derivative and application thereof in preparing drug” (INSTITUTE OF MATERIA MEDICA, CHINESE ACADEMY OF MEDICAL …, priority 2018, dated 2023).
Several values for one entry are separate records, joined by “and”; a condition that tells them apart may be missing. Identical values can stand only once. Counter-ions that a name gives are not always drawn. Like-named read-outs stand apart in the source and are kept apart here. Marks after values point to notes of the source that are not given here. Each block holds one compound with its values, some of them ahead of it.

How the values were obtained:
[1] = tested on: C57b1/6j mice model of ulcerative colitis induced by DSS; test: Acute ulcerative colitis model induced by dextran sodium sulfate (DSS); format: in vivo; conditions: for Percentage of colon contracture: compared to colon length in normal control group; for body weight loss percentage: compared with body weight at the beginning of the experiment; for Body weight change rate: end versus start
Experimental: (1) Animals: C57b1/6j mice, male (20-22 g); seven mice in each group.
(3) Dosage and times of administration: The positive drug was 500 mg/kg, both dihydrocoptisine and the compounds of the invention were 100 mg/kg, once a day for eight days.
(4) Experimental methods: The method of this experiment was a literature method: see Zhi-Hui Zhang, Hai-Jing Zhang, An-Jun Deng, Bo Wang, Zhi-Hong Li,
Yang Liu, Lian-Qiu Wu, Wen-Jie Wang, and Hai-Lin Qin. Synthesis and Structure-activity Relationships of Quaternary Coptisine Derivatives as Potential Anti-ulcerative Colitis Agents. Journal of Medicinal Chemistry. 2015, 58, 7557-7571.
The effect of the compounds of the invention on the disease activity index (DAI) and the inhibition rate of DAI in the C57b1/6j mice model of ulcerative colitis induced by DSS was investigated. […] In Table 5, **, P<0.01, compared with the normal control group; ^#, P<0.05 and ^##, P<0.01, compared with the model group.

[2] = Hydrosolubility examination in pure water; format: physicochemical; conditions: per milliliter of purified water, 25° C.±2° C., visual, within 30 minutes
Experimental: The compounds of the invention were weighed and placed into a certain amount of pure water solvent under 25° C.±2° C., respectively. […] If there were no visible solute particle, it would be regarded as complete dissolution.

[3] = Alcohol-solubility examination in 95% ethanol under refluxing; format: physicochemical; conditions: per gram of compound, within 30 minutes
Experimental: The compounds of the invention were weighed and placed into different amount of 95% ethanol solvent under refluxing, respectively. The dissolution status within 30 minutes was observed. If there were no visible solute particle, it would be regarded as complete dissolution.

[4] = tested on: acute ear swelling model of mice caused by croton oil; test: Acute ear swelling model of mice caused by croton oil; format: in vivo, Balb/c mice; conditions: 5 mg/kg by gavage
[5] = tested on: Candida albicans MCC (F) 98001; test: MIC by twofold microdilution broth method; format: cell-based; conditions: 24 h; for MIC: Candida albicans, read-out: MIC C. albicans
Experimental: (§1) (1) Strains: Staphylococcus aureus, Escherichia colt, Candida albicans MCC (F) 98001.
(§2) (2) Experimental method: the anti-bacterial activity of the compounds of the invention was evaluated by determining the minimum inhibitory concentration (MIC) using the twofold microdilution broth method. The compounds of the invention and the reference substances (quaternary ammonium salt substrates of berberine-type alkaloids and levofloxacin) were prepared into a 20000 μg/ml stock solution with DMSO for use. S. aureus and E. coli were diluted using MHB (Mueller Hinton Broth) medium, and C. albicans using Sabouraud medium, all prepared into 10^6 CFU (colony forming unit) concentration as bacterial suspensions for use. The determination steps of MIC are as follows. First, 180 μl of MHB medium (for S. aureus and E. coli) or Sabouraud Medium (for C. albicans) was transferred to the first well in each row of the sterile 96 well plate, and 100 μl to the second to the 11th wells of each row, and 200 μl to the 12th well as negative blank control well. 20 μl sample stock solution was taken and added to the first well. After mixed up, 100 μl was taken from the first well and transferred to the second well. The same as mentioned above, the second well was mixed up, 100 μl of mixed content was taken from the second well and added to the third well, as described above. As such, the same operation was continued till the 10th well, and finally 100 μl of content was drawn from the 10th well and discarded. The bacterial suspension of 100 μl was added to each of the aforementioned from first to eleven wells and mixed up. Three parallel groups for each sample were set up. The 96 well plates were put into the incubator to culture for 24 h. […] The MIC values of each sample to be tested as well as those of the references were observed and recorded with the naked eyes.

[6] = tested on: Staphylococcus aureus; test: MIC by twofold microdilution broth method; format: cell-based; conditions: 24 h; for MIC: Staphylococcus aureus, read-out: MIC S. aureus
Experimental: as §1, §2

[7] = tested on: Escherichia coli; test: MIC by twofold microdilution broth method; format: cell-based; conditions: 24 h, read-out: MIC E. coli
Experimental: as §1, §2

[8] = tested on: colorectal cancer model mice induced by AOM/DSS; test: Colorectal cancer model mice induced by AOM/DSS; format: in vivo, C57b1/6j mice; conditions: 250 mg/kg by gavage, two weeks on, one week off, 12 weeks
[9] = Sabouraud medium, 25° C., stock solution 20000 μg/ml
[10] = 100 mg/kg, listed as dihydrocoptisine

SMILES: O=C(O)c1cc(/N=N/c2ccc(S(=O)(=O)Nc3ccccn3)cc2)ccc1O [SASP, salazosulfapyridine]
- Colon length ([1]; 500 mg/kg): 5.90 cm and 5.90 ± 0.30^# cm
- DAI ([1]; 500 mg/kg): 3.07 ± 1.01^#
- DAI inhibition rate ([1]; 500 mg/kg): 23.33%
- Body weight (g) X ± SD End ([1]; 500 mg/kg once a day for eight days): 15.86 ± 1.58 g
- Percentage of colon contracture ([1]; 500 mg/kg): 28.43%
- body weight loss percentage ([1]; 500 mg/kg): 27.70%
- Body weight change rate ([1]; 500 mg/kg): −27.70%

SMILES: COc1ccc2cc3[n+](c(C(Cl)Cl)c2c1OC)CCc1cc2c(cc1-3)OCO2.O=C([O-])/C=C\C(=O)O [Compound 27, 8-dichloromethyl berberine hydrogen maleate]
- amount dissolved in each milliliter of water [2]: 3.83 mg
- amount of 95% ethanol solvent required for dissolving each gram [3]: 5.8 mL

SMILES: ClC(Cl)c1c2c3c(ccc2cc2[n+]1CCc1cc4c(cc1-2)OCO4)OCO3.O=C([O-])/C=C\C(=O)O [Compound 25, 8-dichloromethyl coptisine hydrogen maleate]
- amount of 95% ethanol solvent required for dissolving each gram [3]: 23 mL

SMILES: COc1ccc2c(c1)c(CC(=O)O)c(C)n2C(=O)c1ccc(Cl)cc1 [Indomethacin]
- Inhibition rate (ear swelling) [4]: 26.01^# %
- Degree of swelling ([4]; 4 hours after croton oil): 70.26 ± 20.97 mg
- Inhibition rate (ear swelling) ([4]; listed as indomethacin): 26.01%

SMILES: Cc1ccc(S(=O)(=O)[O-])cc1.ClC(Cl)c1c2c3c(ccc2cc2[n+]1CCc1cc4c(cc1-2)OCO4)OCO3 [Compound 29, 8-dichloromethyl coptisine tosylate]
- amount of 95% ethanol solvent required for dissolving each gram [3]: 24 mL

SMILES: c1c2c(cc3c1OCO3)-c1cc3ccc4c(c3c[n+]1CC2)OCO4 [coptisine hydrochloride]
- amount dissolved in each milliliter of water [2]: less than 1 mg
- MIC [5]: 250 µg/mL
- MIC C. albicans [5, 9]: 250 µg/mL
- MIC S. aureus ([6]; MHB medium, 37° C.): more than 250 ug/mL
- MIC [6]: > 250 µg/mL
- MIC [7]: > 250 µg/mL

- amount dissolved in each milliliter of water [2]: 6.45 mg
- amount of 95% ethanol solvent required for dissolving each gram [3]: 7 mL
SMILES: COc1ccc2cc3[n+](c(C(Cl)Cl)c2c1OC)CCc1cc2c(cc1-3)OCO2.O=S(=O)([O-])c1ccccc1 [Compound 47, 8-dichloromethyl berberine benzenesulfonate]

SMILES: COc1ccc2cc3[n+](c(C(Cl)Cl)c2c1OC)CCc1cc2c(cc1-3)OCO2.Cc1ccc(S(=O)(=O)[O-])cc1 [Compound 31, 8-dichloromethyl berberine tosylate]
- amount dissolved in each milliliter of water [2]: 5.0 mg
- amount of 95% ethanol solvent required for dissolving each gram [3]: 7 mL

- amount dissolved in each milliliter of water [2]: < 2 mg
- MIC [5, 9]: 250 µg/mL
- MIC C. albicans [5, 9]: 250 µg/mL
- MIC S. aureus ([6]; MHB medium, 37° C.): 125 µg/mL
- MIC ([6]; MHB medium, 37° C.): 125 µg/mL
- MIC ([7]; MHB medium, 37° C.): 250 µg/mL
SMILES: COc1ccc2cc3[n+](cc2c1OC)CCc1cc2c(cc1-3)OCO2 [berberine hydrochloride]

- MIC [5, 9]: > 250 µg/mL
- MIC C. albicans [5, 9]: more than 250 ug/mL
- MIC ([6]; MHB medium, 37° C.): < 1.95 µg/mL
- MIC ([7]; MHB medium, 37° C.): < 1.95 µg/mL
SMILES: C[C@H]1COc2c(N3CCN(C)CC3)c(F)cc3c(=O)c(C(=O)O)cn1c23 [Levofloxacin]

SMILES: C1=C2c3cc4c(cc3CCN2Cc2c1ccc1c2OCO1)OCO4 [Dihydrocoptisine, dihydrocoptisine]
- Colon length ([1]; 100 mg/kg): 6.23 ± 0.14^## cm
- DAI ([1]; 100 mg/kg): 2.24 ± 0.97^##
- DAI inhibition rate ([1]; 100 mg/kg): 44.03^## %
- Body weight (g) X ± SD End ([1]; 100 mg/kg once a day for eight days): 18.43 ± 2.01 g
- Percentage of colon contracture ([1]; 100 mg/kg): 23.93^## %
- Percentage of colon contracture [1, 10]: 23.93%
- body weight loss percentage ([1]; 100 mg/kg): 18.77%
- Body weight change rate ([1]; 100 mg/kg): −18.77^# %
- Colon length [1, 10]: 6.23 cm
- DAI inhibition rate [1, 10]: 44.03%

SMILES: CCCCCOC(=O)Nc1nc(=O)n([C@@H]2O[C@H](C)[C@@H](O)[C@H]2O)cc1F [Capecitabine]
- Spleen weight [8]: 0.228 ± 0.029 g
- Tumor burden (relatively calculated value) [8]: 42.69 ± 10.26 piece
- Spleen weight ([8]; listed as capecitabine): 0.228 ± 0.029 g
- Tumor burden (relatively calculated value) ([8]; listed as capecitabine): 42.69±10.26 piece
